Measured values from patent publication US20180201592A1, “2-AMINO-1,3,4-THIADIAZINE AND 2-AMINO-1,3,4-OXADIAZINE BASED ANTIFUNGAL AGENTS” (F2G Limited, priority 2015, published 2018).
Converted amounts (≈) assume the structure as drawn. Where two headings read alike, the source gives them in different places.

Key:
A. fumigatus = assay: Minimum inhibitory concentration, RPMI medium; assay type: cell-based; settings: banded MIC grade
Experimental: (§1) Between 1 and 5 mgs of compound were accurately weighed out into a sterile Eppendorf tube. The compound was dissolved in DMSO to give a solution containing 5 mg/mL. Tubes were stored at −20° C. until required.
(§2) On the day of testing thawed solutions were vortex mixed to ensure homogeneity. 30 μL of solution was removed and added to 570 μL of sterile water in a separate sterile Eppendorf. The thoroughly mixed solution was used to prepare a series of doubling dilutions in water, in a deep well plate. Thirteen replicate plates were prepared using a Minitrak by aspirating 20 μL from each well into eleven clear polystyrene 96 well plates.
(§3) Assays were also performed in RPMI medium (Roswell Park Memorial Media 1640). To perform MIC tests in this medium, dilutions of compounds are prepared in microtitre plates as described above. Fungal strains to be tested are grown and harvested in an identical manner to that described above, and each organism suspension was diluted in RPMI medium, typically containing 2% glucose and 0.135 M MOPS buffer (pH 7.0) to 0.5-2×10^4cfu/mL, rather than in YAG medium. 80 μL of an organism suspension was added to each well of the plate containing drug dilutions.
(§4) This produced MIC plates with a drug range 50-0.05 mg/L and organism inocula of 1-2×10^4 cfu/mL. All plates were incubated for 24-48 hrs at 35° C. Growth was assessed by monitoring the optical density at 485 nm for each well. The MIC of a compound is the lowest drug concentration that inhibits growth of an organism by >80% compared with a drug free control. The following organisms were tested: C. albicans, C. parapsilosis, C. tropicalis, C. glabrata, C. krusei, A. niger, A. fumigatus, A. terreus, A. flavus, A. terreus 49, and A. fumigatus 210.

A. fumigatus 210 [1] = assay: Minimum inhibitory concentration, RPMI medium; assay type: cell-based; settings: banded MIC grade
Experimental: as §1, §2, §3, §4

A. terreus 49 [2] = assay: Minimum inhibitory concentration, YAG medium; assay type: cell-based, Aspergillus terreus; settings: banded MIC grade; for MIC: Aspergillus terreus, 49, YAG media
How it was run: (§5)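 MIC in mg/L, from OD485 growth read-out after 24 hrs at 35° C in YAG medium with Aspergillus spores. Doubling dilutions in water made from a 5 mg/mL DMSO stock.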

A. fumigatus 210 [3] = assay: Minimum inhibitory concentration, YAG medium; assay type: cell-based, Aspergillus fumigatus; settings: banded MIC grade; for MIC: Aspergillus fumigatus, 210, YAG media
How it was run: (§6)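 Broth microdilution in YAG medium; inoculum 1-2×10^4 cfu/mL; compound 50-0.05 mg/L in doubling steps, from DMSO stock. 24 h, 35° C. Read OD 485 nm; MIC = lowest conc. inhibiting growth >70% vs no-drug control, in mg/L.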

Aspergillus fumigatus = assay: Minimum inhibitory concentration, YAG medium; assay type: cell-based; settings: banded MIC grade; for MIC: Aspergillus fumigatus, YAG media
How it was run: as §6

A. niger = assay: Minimum inhibitory concentration, RPMI medium; assay type: cell-based; settings: banded MIC grade
How it was run: (§7)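 Growth was measured by OD at 485 nm after 24-48 hrs at 35° C in RPMI 1640 medium. Compound was serially diluted twofold in water, starting from a 5 mg/mL DMSO stock solution.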

C. albicans = assay: Minimum inhibitory concentration, RPMI medium; assay type: cell-based; settings: banded MIC grade; for MIC: Candida albicans, RPMI media
How it was run: as §7

A. flavus = assay: Minimum inhibitory concentration, RPMI medium; assay type: cell-based; settings: banded MIC grade
How it was run: as §7

A. terreus 49 [4] = assay: Minimum inhibitory concentration, RPMI medium; assay type: cell-based; settings: banded MIC grade
How it was run: as §7

C. krusei = assay: Minimum inhibitory concentration, RPMI medium; assay type: cell-based; settings: banded MIC grade
How it was run: as §7

C. tropicalis = assay: Minimum inhibitory concentration, RPMI medium; assay type: cell-based; settings: banded MIC grade; for MIC: Candida tropicalis, RPMI media
How it was run: as §7

A. terreus = assay: Minimum inhibitory concentration, RPMI medium; assay type: cell-based; settings: banded MIC grade
How it was run: as §7

C. parapsilosis = assay: Minimum inhibitory concentration, RPMI medium; assay type: cell-based; settings: banded MIC grade; for MIC: Lodderomyces parapsilosis, RPMI media
How it was run: as §7

C. glabrata = assay: Minimum inhibitory concentration, RPMI medium; assay type: cell-based; settings: banded MIC grade
How it was run: as §7

Aspergillus terreus = assay: Minimum inhibitory concentration, YAG medium; assay type: cell-based; settings: banded MIC grade; for MIC: Aspergillus terreus, YAG media
How it was run: as §5

Aspergillus flavus = assay: Minimum inhibitory concentration, YAG medium; assay type: cell-based; settings: banded MIC grade; for MIC: Aspergillus flavus, YAG media
How it was run: as §5

Aspergillus niger = assay: Minimum inhibitory concentration, YAG medium; assay type: cell-based; settings: banded MIC grade; for MIC: Aspergillus niger, YAG media
How it was run: as §5

[5] = read-out: MIC grade C. ALBICANS
[6] = read-out: MIC grade, C. ALBICANS, RPMI media
[7] = read-out: MIC grade C. PARAPSILOSIS
[8] = read-out: MIC grade, C. PARAPSILOSIS, RPMI media

Row | Compound | MIC grade, A. FUMIGATUS, RPMI media (A. fumigatus) | MIC grade, A. FUMIGATUS 210, RPMI media (A. fumigatus 210 [1]) | MIC grade, A. TERREUS 49, YAG media (A. terreus 49 [2]) | MIC grade, A. FUMIGATUS 210, YAG media (A. fumigatus 210 [3]) | MIC grade, A. FUMIGATUS, YAG media (Aspergillus fumigatus) | MIC grade, A. NIGER, RPMI media (A. niger) | MIC grade, C. ALBICANS, RPMI media (C. albicans) | MIC grade, A. FLAVUS, RPMI media (A. flavus) | MIC grade, A. TERREUS 49, RPMI media (A. terreus 49 [4]) | MIC (A. terreus 49 [2]) | MIC (A. fumigatus 210 [3]) | MIC (Aspergillus fumigatus) | MIC (C. albicans; [5]) | MIC (C. albicans; [6]) | MIC (C. tropicalis) | MIC (C. parapsilosis; [7]) | MIC (C. parapsilosis; [8]) | MIC (Aspergillus terreus) | MIC (Aspergillus flavus) | MIC (Aspergillus niger) | other results
1 | NC1=NN=C(CCOCCOc2ccccc2)CS1 | 3 (3: 1-5 mg/L) | 3 (3: 1-5 mg/L) | 4 (4: <0.2 mg/L) | 4 (4: <0.2 mg/L) | 4 (4: <0.2 mg/L) | 3 (3: 1-5 mg/L) | 3 (3: 1-5 mg/L) | 3 (3: 1-5 mg/L) | 4 (4: <1 mg/L) | – | – | – | – | – | – | – | – | – | – | – | MIC grade, C. KRUSEI, RPMI media (C. krusei): 4 (4: <1 mg/L); MIC grade, C. TROPICALIS, RPMI media (C. tropicalis): 3 (3: 1-5 mg/L); MIC grade, A. TERREUS, RPMI media (A. terreus): 4 (4: <1 mg/L); MIC grade, C. PARAPSILOSIS, RPMI media (C. parapsilosis): 4 (4: <1 mg/L); MIC grade, C. GLABRATA, RPMI media (C. glabrata): 2 (2: 5-20 mg/L); MIC grade, A. TERREUS, YAG media (Aspergillus terreus): 4 (4: <0.2 mg/L); MIC grade, A. FLAVUS, YAG media (Aspergillus flavus): 4 (4: <0.2 mg/L); MIC grade, A. NIGER, YAG media (Aspergillus niger): 4 (4: <0.2 mg/L)
2 | NC1=NN=C(CCCCOCc2ccccc2CCc2ccccc2)CS1 | 1 (1: ≥20 mg/L) | 1 (1: ≥20 mg/L) | 1 (1: ≥5 mg/L) | 1 (1: ≥5 mg/L) | 1 (1: ≥5 mg/L) | 1 (1: ≥20 mg/L) | 2 (2: 5-20 mg/L) | 1 (1: ≥20 mg/L) | 2 (2: 5-20 mg/L) | – | – | – | – | – | – | – | – | – | – | – | MIC grade, C. KRUSEI, RPMI media (C. krusei): 2 (2: 5-20 mg/L); MIC grade, C. TROPICALIS, RPMI media (C. tropicalis): 2 (2: 5-20 mg/L); MIC grade, A. TERREUS, RPMI media (A. terreus): 2 (2: 5-20 mg/L); MIC grade, C. PARAPSILOSIS, RPMI media (C. parapsilosis): 2 (2: 5-20 mg/L); MIC grade, C. GLABRATA, RPMI media (C. glabrata): 1 (1: ≥20 mg/L); MIC grade, A. TERREUS, YAG media (Aspergillus terreus): 2 (2: 1-5 mg/L); MIC grade, A. FLAVUS, YAG media (Aspergillus flavus): 2 (2: 1-5 mg/L); MIC grade, A. NIGER, YAG media (Aspergillus niger): 1 (1: ≥5 mg/L)
3 | CN1N=C(N)SC=C1c1ccc(Cl)c(Cl)c1 [5-(3,4-dichlorophenyl)-4-methyl-1,3,4-thiadiazin-2-amine] | – | – | – | – | – | – | – | – | – | 0.2 to 1 µg/mL (≈ 0.729 to 3.65 µM) | 1 to 5 µg/mL (≈ 3.65 to 18.2 µM) | 1 to 5 µg/mL (≈ 3.65 to 18.2 µM) | 5 to 20 µg/mL (≈ 18.2 to 72.9 µM) | ≥ 20 µg/mL | ≥ 20 µg/mL | ≥ 20 µg/mL | ≥ 20 µg/mL | 1 to 5 µg/mL (≈ 3.65 to 18.2 µM) | ≥ 5 µg/mL | 1 to 5 µg/mL (≈ 3.65 to 18.2 µM) | –
4 | CCCCOc1ccc(C2=CSC(N)=NN2C)cc1 [5-(4-butoxyphenyl)-4-methyl-1,3,4-thiadiazin-2-amine] | – | – | – | – | – | – | – | – | – | 0.2 to 1 µg/mL (≈ 0.721 to 3.6 µM) | < 0.2 µg/mL | < 0.2 µg/mL | 1 to 5 µg/mL (≈ 3.6 to 18 µM) | ≥ 20 µg/mL | 1 to 5 µg/mL (≈ 3.6 to 18 µM) | < 1 µg/mL | 1 to 5 µg/mL (≈ 3.6 to 18 µM) | 0.2 to 1 µg/mL (≈ 0.721 to 3.6 µM) | < 0.2 µg/mL | < 0.2 µg/mL | –
5 | CN1N=C(N)SC=C1c1ccc(Cl)cc1 [5-(4-chlorophenyl)-4-methyl-1,3,4-thiadiazin-2-amine] | – | – | – | – | – | – | – | – | – | < 0.2 µg/mL | < 0.2 µg/mL | < 0.2 µg/mL | 1 to 5 µg/mL (≈ 4.17 to 20.9 µM) | 1 to 5 µg/mL (≈ 4.17 to 20.9 µM) | 5 to 20 µg/mL (≈ 20.9 to 83.4 µM) | < 1 µg/mL | < 1 µg/mL | < 0.2 µg/mL | < 0.2 µg/mL | < 0.2 µg/mL | –
